Results on 19 molecules are retold here after PubChem BioAssay (NCI).

Some test systems named below: SK-MEL-28 melanoma; BT-549 breast; COLO 205 colon; 786-0 renal; A498 renal; UO-31 renal; OVCAR-4 ovarian; HL-60(TB) leukemia; SR leukemia; SN12C renal; MDA-MB-231 breast.
Holding throughout (experiment): NCI-60 cell line screen, 48 h

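These data come from cells grown in 96-well plates and exposed to compound for 48 hours at five concentrations. Here, GI50 denotes the concentration required for 50% inhibition of growth. TGI denotes the concentration required for complete inhibition of growth.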

Take `C=C(C)C(=O)O[C@H]1CC2(CO)O[C@@H]2CC/C(COC(C)=O)=C/C2OC(=O)C(=C)[C@@H]21` (stereo partly specified): the TGI with SK-MEL-28 melanoma was above 64.6 µM; in the test on BT-549 breast, 52.1 µM; in the test with COLO 205 colon, 48.4 µM; in the test on 786-0 renal it was above 31.6 µM; in the test on A498 renal, above 100 µM; in the test on UO-31 renal, 59.4 µM. Moreover, the TGI was above 100 µM in the test on OVCAR-4 ovarian; 29.6 µM in the test on HL-60(TB) leukemia; 43.3 µM with SR leukemia; above 100 µM in the test with SN12C renal; above 100 µM with MDA-MB-231 breast.
For `COCCN(C(=O)c1ccccc1)C1CCC(=O)c2[nH]c3ccccc3c21` (stereo unspecified), the TGI in the test on SK-MEL-28 melanoma was 16 µM; in the test on BT-549 breast, 8.22 µM; in the test with COLO 205 colon it was 31.5 µM; in the test on 786-0 renal it was 11.9 µM; in the test on A498 renal, 33.4 µM; in the test with UO-31 renal, 25.2 µM. Further, the TGI was 22.2 µM in the test on OVCAR-4 ovarian; 58.8 µM in the test with HL-60(TB) leukemia; above 24.8 µM in the test on SR leukemia; 21.1 µM in the test on SN12C renal; 15.9 µM with MDA-MB-231 breast.
Turning to `O=C(c1ccccc1)c1ccc2nc(-c3c(Cl)c(Cl)c(Cl)c(Cl)c3C(=O)Nc3ccco3)[nH]c2c1`, the TGI in the test on SK-MEL-28 melanoma was above 100 µM; with BT-549 breast it was 74 µM; in the test on COLO 205 colon, above 100 µM; in the test on 786-0 renal it was above 100 µM; in the test with A498 renal, 92.2 µM; in the test on UO-31 renal, above 100 µM. In addition, the TGI with OVCAR-4 ovarian is above 100 µM; in the test with HL-60(TB) leukemia, 98.3 µM; with SR leukemia, 58.8 µM; in the test with SN12C renal, above 100 µM; in the test on MDA-MB-231 breast, above 100 µM.
For `CC(=O)OCC1(CNc2nc(N)ncc2C#N)CC(CCc2ccccc2)C1` (stereo unspecified), the TGI in the test on SK-MEL-28 melanoma, in the test on BT-549 breast, in the test on COLO 205 colon, in the test on 786-0 renal, in the test on A498 renal and in the test with UO-31 renal was above 100 µM in each case. Further, the TGI in the test on OVCAR-4 ovarian, in the test with HL-60(TB) leukemia, with SR leukemia, in the test on SN12C renal and in the test on MDA-MB-231 breast was above 100 µM in each case.
Turning to `Cc1cn([C@@H]2C[C@](C)(CO)N(C)O2)c(=O)[nH]c1=O`, the TGI in the test with SK-MEL-28 melanoma, in the test on BT-549 breast, in the test with COLO 205 colon, in the test with 786-0 renal, in the test on A498 renal and in the test on UO-31 renal was above 100 µM throughout. Further, the TGI with OVCAR-4 ovarian, in the test on HL-60(TB) leukemia, in the test on SR leukemia, with SN12C renal and in the test on MDA-MB-231 breast was above 100 µM in each case.
With `C#Cc1cccc(Nc2ncnc3cc(OCCOC)c(OCCOC)cc23)c1`, the TGI in the test with SK-MEL-28 melanoma was above 100 µM; in the test on BT-549 breast it was 98.7 µM; with COLO 205 colon it was above 100 µM; in the test with 786-0 renal it was 48 µM; in the test with A498 renal, 45.8 µM; with UO-31 renal it was 74.5 µM. For the same molecule, the TGI with OVCAR-4 ovarian is above 100 µM; in the test on HL-60(TB) leukemia, above 100 µM; in the test with SR leukemia, above 100 µM; with SN12C renal, above 51.6 µM; in the test with MDA-MB-231 breast, 44.2 µM. Besides, the GI50 is 33.4 µM in the test with BT-549 breast, 2.19 µM in the test on A498 renal, 20.6 µM in the test with HL-60(TB) leukemia and 9.98 µM in the test on SR leukemia.
Regarding `O=C(O)Cn1ncn(NC(=O)Cc2ccccc2)c1=S`, the TGI with SK-MEL-28 melanoma, in the test with BT-549 breast, in the test with COLO 205 colon, in the test on 786-0 renal, in the test with A498 renal and with UO-31 renal was above 10 µM each time. The TGI in the test with OVCAR-4 ovarian, with SR leukemia, in the test with SN12C renal and in the test with MDA-MB-231 breast was above 10 µM in each case.
`CC(=O)c1cc(S(=O)(=O)c2ccc(O)c(C(C)=O)c2)ccc1O`: the TGI with SK-MEL-28 melanoma, in the test with BT-549 breast, with COLO 205 colon, with 786-0 renal, in the test with A498 renal and with UO-31 renal was above 100 µM throughout. Further, the TGI in the test on OVCAR-4 ovarian, in the test on SR leukemia, in the test on SN12C renal and with MDA-MB-231 breast was above 100 µM in each case.
`Nc1cc2ncnc(Nc3cccc(Br)c3)c2cn1`: the TGI in the test with SK-MEL-28 melanoma was above 100 µM; in the test on BT-549 breast, above 100 µM; in the test with COLO 205 colon, above 100 µM; with 786-0 renal it was above 100 µM; with A498 renal, 36.1 µM; in the test on UO-31 renal it was above 100 µM. The TGI in the test on OVCAR-4 ovarian, in the test with HL-60(TB) leukemia, with SR leukemia, in the test on SN12C renal and with MDA-MB-231 breast was above 100 µM in each case.
Regarding `COC(=O)NC(Nc1ccc(C)cc1)(C(F)(F)F)C(F)(F)F`, the TGI in the test with SK-MEL-28 melanoma, with BT-549 breast, with COLO 205 colon, in the test with 786-0 renal, with A498 renal and in the test on UO-31 renal was above 100 µM each time. For the same molecule, the TGI in the test with HL-60(TB) leukemia, in the test with SR leukemia, with SN12C renal and with MDA-MB-231 breast was above 100 µM each time.
Regarding `CC(C)Oc1cc2c(cc1O)CC[C@@H]1[C@@H]2CC[C@]2(C)[C@@H](O)CC[C@@H]12`, the TGI worked out at 56.6 µM in the test with SK-MEL-28 melanoma; 52.7 µM with BT-549 breast; 40.7 µM in the test with COLO 205 colon; 36.1 µM in the test with 786-0 renal; 26.9 µM with A498 renal; 46.6 µM in the test on UO-31 renal. Moreover, the TGI in the test with OVCAR-4 ovarian was 61.1 µM; in the test with HL-60(TB) leukemia, above 38.1 µM; in the test on SR leukemia, 27.8 µM; in the test with SN12C renal, 29.1 µM; with MDA-MB-231 breast it was 26.6 µM.
Regarding `C=C1CC(Cn2cc(Br)c(=O)[nH]c2=O)(c2ccc(Br)cc2)OC1=O` (stereo unspecified), the TGI in the test with SK-MEL-28 melanoma came out at 16.7 µM; in the test on BT-549 breast, 8.25 µM; in the test with COLO 205 colon it was 3.18 µM; in the test with 786-0 renal, 3.27 µM; in the test on A498 renal, 10.2 µM; in the test on UO-31 renal, 27.1 µM. Moreover, the TGI in the test on OVCAR-4 ovarian is 4.63 µM; in the test with HL-60(TB) leukemia, 2.74 µM; in the test on SR leukemia, above 22.6 µM; with SN12C renal, 20.8 µM; with MDA-MB-231 breast it was 17.4 µM.
`O=P1(N(CCCl)CCCl)NCCCO1` (stereo unspecified): the TGI with SK-MEL-28 melanoma, in the test with BT-549 breast, in the test on COLO 205 colon, in the test with 786-0 renal, in the test with A498 renal and with UO-31 renal was above 250 µM each time. The TGI in the test on OVCAR-4 ovarian is above 250 µM; with HL-60(TB) leukemia, 220 µM; in the test on SR leukemia, above 250 µM; in the test on SN12C renal, above 250 µM; in the test on MDA-MB-231 breast it was above 250 µM.
As to `CC(=O)Nc1nc(C)c(S(=O)(=O)NC(=O)N2c3ccccc3CCc3ccccc32)s1`, the TGI in the test with SK-MEL-28 melanoma, with BT-549 breast, in the test on COLO 205 colon, in the test with 786-0 renal, with A498 renal and in the test with UO-31 renal was above 100 µM throughout. Besides, the TGI in the test on OVCAR-4 ovarian, in the test with HL-60(TB) leukemia, in the test on SR leukemia, in the test with SN12C renal and in the test on MDA-MB-231 breast was above 100 µM in each case.
Consider `O=C1/C(=C/c2cccs2)N=C(c2ccccc2)N1c1nc2ccccc2s1`, for which the TGI with SK-MEL-28 melanoma, with BT-549 breast, with 786-0 renal, with A498 renal, in the test with UO-31 renal and in the test on HL-60(TB) leukemia was above 100 µM throughout. The TGI in the test on SR leukemia, in the test on SN12C renal and with MDA-MB-231 breast was above 100 µM throughout.
Turning to `O=C1Sc2cc3ccccc3cc2C(=O)Sc2cc3ccccc3cc21`, the TGI was above 85.4 µM in the test with SK-MEL-28 melanoma; above 100 µM in the test with BT-549 breast; above 100 µM in the test with COLO 205 colon; 59 µM in the test on 786-0 renal; above 100 µM in the test on A498 renal; 37.1 µM with UO-31 renal. In addition, the TGI in the test on OVCAR-4 ovarian was 69.5 µM; with HL-60(TB) leukemia it was 27.1 µM; in the test on SR leukemia, 9.27 µM; in the test with SN12C renal, 75.7 µM; in the test on MDA-MB-231 breast, above 100 µM.
Regarding `CCOC(=O)c1nc2ccccc2nc1Nc1ccc(F)cc1`, the TGI was above 100 µM in the test on SK-MEL-28 melanoma; 73.2 µM in the test on BT-549 breast; above 100 µM in the test on COLO 205 colon; above 72.2 µM in the test with 786-0 renal; 58.5 µM in the test with A498 renal; above 100 µM in the test with UO-31 renal. Also, the TGI in the test on OVCAR-4 ovarian is above 100 µM; with HL-60(TB) leukemia, above 100 µM; in the test on SR leukemia, above 100 µM; in the test on SN12C renal, above 100 µM; in the test on MDA-MB-231 breast, 24.2 µM.
With `c1cc2c3c(c1)[C@@H]1O[C@@H]1c1cccc(c1-3)[C@@H]1O[C@H]21`, the TGI was 31.3 µM in the test with SK-MEL-28 melanoma; 98.5 µM in the test on BT-549 breast; 44.6 µM in the test with COLO 205 colon; 75 µM in the test with 786-0 renal; above 100 µM in the test on A498 renal; 30.3 µM with UO-31 renal. In addition, the TGI in the test on OVCAR-4 ovarian is 56.3 µM; in the test with SR leukemia it was above 100 µM; with SN12C renal it was 54.2 µM; in the test with MDA-MB-231 breast, 41.8 µM.
As for `Cc1cc2nc3c(N)nn(CCN(C)C)c3nc2cc1C`, the TGI with SK-MEL-28 melanoma, in the test on BT-549 breast, in the test on COLO 205 colon, in the test with 786-0 renal, in the test with A498 renal and in the test with UO-31 renal was above 100 µM throughout. The TGI in the test on OVCAR-4 ovarian, in the test with SR leukemia, in the test with SN12C renal and with MDA-MB-231 breast was above 100 µM in each case.
